From PubChem BioAssay (NCI)
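1) Cells in 96-well plates. 2) Compound, 48 h, 5 concentrations. 3) Linear interpolation between surrounding doses. 4) Unreached endpoint = highest concentration. TGI denotes the concentration required for complete inhibition of growth.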

Experiments:
Test in all cases: DTP human tumour cell line panel, 48 h
SK-MEL-28 melanoma = system: SK-MEL-28 melanoma
HOP-62 NSCLC = system: HOP-62 NSCLC
786-0 renal = system: 786-0 renal
MDA-MB-231 breast = system: MDA-MB-231 breast
DU-145 prostate = system: DU-145 prostate
SF-539 CNS = system: SF-539 CNS
K-562 leukemia = system: K-562 leukemia
UO-31 renal = system: UO-31 renal
NCI-H23 lung = system: NCI-H23 lung
NCI-H522 lung = system: NCI-H522 lung
SN12C renal = system: SN12C renal
RPMI-8226 leukemia = system: RPMI-8226 leukemia
OVCAR-4 ovarian = system: OVCAR-4 ovarian
SF-295 CNS = system: SF-295 CNS
TK-10 renal = system: TK-10 renal
OVCAR-8 ovarian = system: OVCAR-8 ovarian
HOP-92 NSCLC = system: HOP-92 NSCLC
SK-OV-3 ovarian = system: SK-OV-3 ovarian
LOX IMVI melanoma = system: LOX IMVI melanoma
M14 melanoma = system: M14 melanoma
A498 renal = system: A498 renal
PC-3 prostate = system: PC-3 prostate
COLO 205 colon = system: COLO 205 colon
UACC-62 melanoma = system: UACC-62 melanoma
MALME-3M melanoma = system: MALME-3M melanoma
T-47D breast = system: T-47D breast
NCI/ADR-RES ovarian = system: NCI/ADR-RES ovarian
OVCAR-5 ovarian = system: OVCAR-5 ovarian
U251 CNS = system: U251 CNS
OVCAR-3 ovarian = system: OVCAR-3 ovarian
MDA-MB-435 = system: MDA-MB-435
SK-MEL-5 melanoma = system: SK-MEL-5 melanoma
SW-620 colon = system: SW-620 colon
HS 578T breast = system: HS 578T breast
BT-549 breast = system: BT-549 breast
KM12 colon = system: KM12 colon
NCI-H460 lung = system: NCI-H460 lung
A549 NSCLC = system: A549 NSCLC
CAKI-1 renal = system: CAKI-1 renal
SF-268 CNS = system: SF-268 CNS
HCT-116 colon = system: HCT-116 colon
MDA-N = system: MDA-N
IGROV1 ovarian = system: IGROV1 ovarian
HL-60(TB) leukemia = system: HL-60(TB) leukemia
HCT-15 colon = system: HCT-15 colon
RXF 393 renal = system: RXF 393 renal
CCRF-CEM leukemia = system: CCRF-CEM leukemia
MOLT-4 leukemia = system: MOLT-4 leukemia
HT29 colon = system: HT29 colon
EKVX NSCLC = system: EKVX NSCLC
ACHN renal = system: ACHN renal
MCF7 breast = system: MCF7 breast
SK-MEL-2 melanoma = system: SK-MEL-2 melanoma
SR leukemia = system: SR leukemia
SNB-19 CNS = system: SNB-19 CNS
UACC-257 melanoma = system: UACC-257 melanoma
HCC-2998 colon = system: HCC-2998 colon
NCI-H226 lung = system: NCI-H226 lung

Work on `CN(C)CCCNC(=O)c1cc2/c(=C\c3ccc(N(C)C)cc3)c3ccccc3n2[n+]1C` yielded a TGI (SK-MEL-28 melanoma) of 74.8 µM, a TGI (HOP-62 NSCLC) greater than 100 µM and a TGI (786-0 renal) greater than 100 µM. It also gave a TGI (MDA-MB-231 breast) of 64.4 µM, a TGI (DU-145 prostate) greater than 100 µM and a TGI (SF-539 CNS) of 39.4 µM. It also gave a TGI (K-562 leukemia) of 35.4 µM, a TGI (UO-31 renal) greater than 100 µM and a TGI (NCI-H23 lung) of 59.5 µM. The TGI (NCI-H522 lung) was 10.9 µM, the TGI (SN12C renal) was 13.5 µM and the TGI (RPMI-8226 leukemia) was 53.6 µM. The TGI (OVCAR-4 ovarian) was 21.4 µM, the TGI (SF-295 CNS) was greater than 100 µM and the TGI (TK-10 renal) was greater than 100 µM. It also gave a TGI (OVCAR-8 ovarian) greater than 100 µM, a TGI (HOP-92 NSCLC) of 56.4 µM and a TGI (SK-OV-3 ovarian) greater than 100 µM. For the same compound, the TGI (LOX IMVI melanoma) was greater than 100 µM, the TGI (M14 melanoma) was 39 µM and the TGI (A498 renal) was greater than 100 µM. It also gave a TGI (PC-3 prostate) greater than 100 µM, a TGI (COLO 205 colon) of 21.3 µM and a TGI (UACC-62 melanoma) of 34 µM. It also gave a TGI (MALME-3M melanoma) of 38.4 µM, a TGI (T-47D breast) of 15.9 µM and a TGI (NCI/ADR-RES ovarian) greater than 100 µM. For the same compound, the TGI (OVCAR-5 ovarian) was greater than 100 µM, the TGI (U251 CNS) was 69.2 µM and the TGI (OVCAR-3 ovarian) was 52.2 µM. For the same compound, the TGI (MDA-MB-435) was 58.7 µM, the TGI (SK-MEL-5 melanoma) was 31.3 µM and the TGI (SW-620 colon) was greater than 100 µM. For the same compound, the TGI (HS 578T breast) was greater than 100 µM, the TGI (BT-549 breast) was greater than 100 µM and the TGI (KM12 colon) was 61.6 µM. The TGI (NCI-H460 lung) was greater than 100 µM, the TGI (A549 NSCLC) was greater than 100 µM and the TGI (CAKI-1 renal) was greater than 100 µM. It also gave a TGI (SF-268 CNS) of 90.9 µM, a TGI (HCT-116 colon) of 64.2 µM and a TGI (MDA-N) of 78.4 µM. For the same compound, the TGI (IGROV1 ovarian) was 37.1 µM, the TGI (HL-60(TB) leukemia) was 46 µM and the TGI (HCT-15 colon) was greater than 100 µM. It also gave a TGI (RXF 393 renal) greater than 100 µM, a TGI (CCRF-CEM leukemia) of 90.1 µM and a TGI (MOLT-4 leukemia) greater than 100 µM. It also gave a TGI (HT29 colon) of 82.8 µM, a TGI (EKVX NSCLC) of 39.7 µM and a TGI (ACHN renal) greater than 100 µM. For the same compound, the TGI (MCF7 breast) was 50.7 µM, the TGI (SK-MEL-2 melanoma) was 35.6 µM and the TGI (SR leukemia) was 54.1 µM. It also gave a TGI (SNB-19 CNS) greater than 100 µM and a TGI (UACC-257 melanoma) of 51.3 µM.
`CO[C@@H]1C[C@H](OC(N)=O)[C@@H]2C=C[C@@H]3/C=C(C)/C=C/[C@@H](C)[C@H]([C@H](C)[C@H](O)[C@@H](C)NC(C)=O)OC(=O)/C=C/C=C(C)\C=C\[C@]3(C)[C@@H]2C1` showed a TGI (SK-MEL-28 melanoma) of 1.84 µM, a TGI (HOP-62 NSCLC) of 4.81 µM and a TGI (786-0 renal) of 6.62 µM. It also gave a TGI (MDA-MB-231 breast) of 0.0634 µM, a TGI (DU-145 prostate) of 9.01 µM and a TGI (SF-539 CNS) of 1.46 µM. It also gave a TGI (UO-31 renal) of 0.645 µM, a TGI (NCI-H23 lung) of 13.1 µM and a TGI (NCI-H522 lung) of 1.44 µM. For the same compound, the TGI (SN12C renal) was 8.72 µM, the TGI (RPMI-8226 leukemia) was 3.78 µM and the TGI (OVCAR-4 ovarian) was 9.75 µM. The TGI (SF-295 CNS) was 1.51 µM, the TGI (TK-10 renal) was 3.55 µM and the TGI (OVCAR-8 ovarian) was 13.6 µM. For the same compound, the TGI (HOP-92 NSCLC) was less than 0.01 µM, the TGI (SK-OV-3 ovarian) was 3.66 µM and the TGI (LOX IMVI melanoma) was less than 0.01 µM. The TGI (M14 melanoma) was 1.62 µM, the TGI (A498 renal) was 0.496 µM and the TGI (PC-3 prostate) was 10.8 µM. It also gave a TGI (HCC-2998 colon) of 1.39 µM, a TGI (COLO 205 colon) of 11.1 µM and a TGI (UACC-62 melanoma) of 1.4 µM. The TGI (MALME-3M melanoma) was 3.53 µM, the TGI (T-47D breast) was 11 µM and the TGI (NCI/ADR-RES ovarian) was 6.11 µM. The TGI (OVCAR-5 ovarian) was 9.19 µM, the TGI (NCI-H226 lung) was less than 0.01 µM and the TGI (U251 CNS) was 1.61 µM. The TGI (OVCAR-3 ovarian) was 3.65 µM, the TGI (MDA-MB-435) was 4.36 µM and the TGI (SW-620 colon) was 10.3 µM. The TGI (HS 578T breast) was 0.264 µM, the TGI (BT-549 breast) was greater than 28.5 µM and the TGI (NCI-H460 lung) was 1.58 µM. For the same compound, the TGI (A549 NSCLC) was 10 µM, the TGI (CAKI-1 renal) was 2.67 µM and the TGI (SF-268 CNS) was 4.95 µM. The TGI (HCT-116 colon) was 1.25 µM, the TGI (MDA-N) was 6.03 µM and the TGI (IGROV1 ovarian) was 3.28 µM. The TGI (HL-60(TB) leukemia) was 3.32 µM, the TGI (HCT-15 colon) was 6.77 µM and the TGI (RXF 393 renal) was 3.06 µM. It also gave a TGI (HT29 colon) of 1.93 µM, a TGI (EKVX NSCLC) of 5.34 µM and a TGI (ACHN renal) of 2.67 µM. The TGI (MCF7 breast) was 11.3 µM, the TGI (SK-MEL-2 melanoma) was 7.09 µM and the TGI (SR leukemia) was 0.887 µM. For the same compound, the TGI (SNB-19 CNS) was 17.7 µM and the TGI (UACC-257 melanoma) was 3.04 µM.
Work on `CC(C)(C)c1ccc(C(C)(C)C)c(N2C(=O)[C@@H]3[C@@H]4C=C[C@@H](C4)[C@]3(C)C2=O)c1` yielded a TGI (SK-MEL-28 melanoma) greater than 100 µM, a TGI (HOP-62 NSCLC) greater than 100 µM and a TGI (786-0 renal) of 40.2 µM. The TGI (MDA-MB-231 breast) was greater than 100 µM, the TGI (DU-145 prostate) was 53.5 µM and the TGI (SF-539 CNS) was greater than 100 µM. The TGI (K-562 leukemia) was greater than 100 µM, the TGI (UO-31 renal) was greater than 100 µM and the TGI (NCI-H23 lung) was greater than 100 µM. For the same compound, the TGI (NCI-H522 lung) was 47.4 µM, the TGI (SN12C renal) was 52.3 µM and the TGI (RPMI-8226 leukemia) was 49.1 µM. It also gave a TGI (OVCAR-4 ovarian) of 26.7 µM, a TGI (SF-295 CNS) greater than 100 µM and a TGI (TK-10 renal) greater than 100 µM. It also gave a TGI (OVCAR-8 ovarian) of 33.4 µM, a TGI (HOP-92 NSCLC) of 9.64 µM and a TGI (SK-OV-3 ovarian) greater than 100 µM. The TGI (LOX IMVI melanoma) was 26.8 µM, the TGI (M14 melanoma) was 51.3 µM and the TGI (A498 renal) was 69.8 µM. The TGI (PC-3 prostate) was 72.6 µM, the TGI (HCC-2998 colon) was 29.1 µM and the TGI (COLO 205 colon) was greater than 100 µM. For the same compound, the TGI (UACC-62 melanoma) was 46.7 µM, the TGI (MALME-3M melanoma) was 53 µM and the TGI (T-47D breast) was 82.6 µM. It also gave a TGI (NCI/ADR-RES ovarian) greater than 100 µM, a TGI (OVCAR-5 ovarian) greater than 100 µM and a TGI (NCI-H226 lung) greater than 100 µM. The TGI (U251 CNS) was 52.5 µM, the TGI (OVCAR-3 ovarian) was 53 µM and the TGI (MDA-MB-435) was 32.4 µM. It also gave a TGI (SK-MEL-5 melanoma) greater than 100 µM, a TGI (SW-620 colon) of 62.6 µM and a TGI (HS 578T breast) of 59.9 µM. For the same compound, the TGI (BT-549 breast) was 57.7 µM, the TGI (KM12 colon) was greater than 100 µM and the TGI (NCI-H460 lung) was greater than 100 µM. The TGI (A549 NSCLC) was greater than 100 µM, the TGI (CAKI-1 renal) was greater than 100 µM and the TGI (SF-268 CNS) was 74 µM. For the same compound, the TGI (HCT-116 colon) was 40.9 µM, the TGI (MDA-N) was 31.9 µM and the TGI (IGROV1 ovarian) was 39.9 µM. For the same compound, the TGI (HL-60(TB) leukemia) was 40.4 µM, the TGI (HCT-15 colon) was 42.9 µM and the TGI (RXF 393 renal) was 32.2 µM. It also gave a TGI (CCRF-CEM leukemia) of 32 µM, a TGI (MOLT-4 leukemia) of 61 µM and a TGI (HT29 colon) greater than 100 µM. It also gave a TGI (EKVX NSCLC) greater than 100 µM, a TGI (ACHN renal) greater than 100 µM and a TGI (MCF7 breast) greater than 100 µM. The TGI (SK-MEL-2 melanoma) was 53.1 µM, the TGI (SR leukemia) was 39.9 µM and the TGI (SNB-19 CNS) was greater than 100 µM. The TGI (UACC-257 melanoma) was 74.4 µM.
